Experimental findings from patent publication US9416181B2, “Compositions for cell culture and methods of using the same” (AbbVie Inc., priority 2013, dated 2016) are described below.

A value given as a limit tells only on which side of the number the result lay.

Common to all, as to type: cell-based, Chinese Hamster
The subject of data set [1] is Cell Line 4 (CHO) expressing DVD2. The procedure: (§1) Four different recombinant Chinese Hamster Ovary (CHO) cell lines expressing four different recombinant glycoproteins were evaluated in either shaker flask culture, or 3 L laboratory scale bioreactors. Cell Line 1 was genetically engineered to express Antibody 1, Cell Line 2 was genetically engineered to express Antibody 2, Cell Line 3 was genetically engineered to express dual variable domain immunoglobulin 1 (DVD1) and Cell Line 4 was genetically engineered to express dual variable domain immunoglobulin 2 (DVD2).
Viable cell density (VCD) and cell viability values were measured through trypan blue exclusion via Cedex automated cell counters (Roche Applied Science, Indianapolis, Ind.), glucose and lactate values were measured with a ABL-805 (Radiometer Medical, Denmark) blood gas analyzer. Offline pH, dissolved oxygen (DO), and pCO2 (Dissolved carbon dioxide) measurements were performed as needed with an ABL-805 (Radiometer Medical, Denmark) blood gas analyzer. Osmolality was measured as needed on a Multi-Osmette 2430 osmometer (Precision Systems, Natick, Mass.).
Protein A Affinity Chromatography-Antibody titers were measured from crude cell culture harvests on a Poros ATM (Life Technologies, Carlsbad, Calif.) affinity column using an HPLC system operating with a low pH, step elution gradient with detection at 280 nm. […]

Data set [2] shares this test system. Briefly: Acidic species variants (WCX-10), Cell Line 4 shake flask culture. The procedure:
as §1
Charge Heterogeneity via Weak Cation Exchange Chromatography-Samples were analyzed using an HPLC system equipped with a ProPac WCX-10 analytical column (Thermo Scientific, Sunnyvale, Calif.). Approximately 100 μg of sample was loaded in 6% Buffer B (10 mM sodium phosphate, 500 mM NaCl, pH 5.5) and 94% Buffer A (10 mM sodium phosphate, pH 7.5). The column was run at a flow rate of 1.0 mL/min. The protein was eluted from the column by increasing the buffer B composition from 6% to 16% over 20 minutes. The protein peaks were measured using UV absorbance at 280 nm as the peaks eluted from the column. […]
(§2) To evaluate the impact of other bioflavonoids, fed-batch shake flask cultures were initiated with CDFM supplemented with multiple concentrations of rutin. Cell growth, viability, as well as titers and acidic species variants were measured and shown in FIGS. 14 and 15, respectively.

In data set [3] the test system is Cell Line 1 (CHO) expressing Antibody 1. Briefly: Acidic species variants (WCX-10) of Antibody 1, Cell Line 1 shake flask fed-batch culture. Particulars: shake flask. How it is done:
(§3) A recombinant Chinese Hamster Ovary (CHO) cell line (Cell Line 1) expressing a humanized monoclonal antibody (Antibody 1) was evaluated in 2 different cultures vessels (shaker flasks and 3 L laboratory-scale bioreactors). The cell line was of CHO DUX-B11 origin based on a DHFR (dihydrofolate reductase) expression system and cultured in a chemically defined basal media, and fed periodically with a chemically-defined feed media (CDFM). The media utilized throughout all of the experiments were chemically-defined, and both animal-component free, and protein-free. Each of the respective media were supplemented as needed with selected bioflavonoids to evaluate for their potential impact on the resulting acidic species profile. In preparation of the cultures, the cell lines were serially expanded through separate seed train inoculums to generate enough cells for inoculation. Process conditions utilized during the cultures were slightly different depending on the culture scale, but similar within each scale to the respective non-bioflavonoid supplemented control conditions. All bioflavonoids utilized were purchased from Sigma-Aldrich (St. Louis, Mo.).
(§4) Samples were analyzed using an HPLC system equipped with a ProPac WCX-10 analytical column (Thermo Scientific, Sunnyvale, Calif.). Approximately 100 μg of sample was loaded in 6% Buffer B (10 mM sodium phosphate, 500 mM NaCl, pH 5.5) and 94% Buffer A (10 mM sodium phosphate, pH 7.5). The column was run at a flow rate of 1.0 mL/min. The protein was eluted from the column by increasing the buffer B composition from 6% to 16% over 20 minutes. The protein peaks were measured using UV absorbance at 280 nm as the peaks eluted from the column. The column was regenerated using 100% buffer B followed be a re-equilibration period using initial condition before the injection of the next sample. Peaks eluting before the main peak were termed “acidic peaks” and peaks eluting after the main peak were called “basic peaks” (FIG. 2).
(§5) In this Example, EGCG was added into the feed (cell culture medium) at the concentration range of 5 mg/L (low), 20 mg/L (mid) and 50 mg/L (high) in a shaker experiment to determine the impact of EGCG on product quality of a humanized monoclonal antibody (Antibody 1). Detailed cell culture conditions are as described in Table 1.
(§6) However, it was not clear whether or not additional bioflavonoids would also have the same effects. To evaluate the impact of alternative bioflavonoids, fed-batch shake flask cultures were initiated with CDFM supplemented with 3 different concentrations of genistein, rutin, and naringin, in addition to EGCG. Cell growth, viability, as well as titers and acidic species variants were measured.
Charge Heterogeneity via Weak Cation Exchange Chromatography-Samples were analyzed using an HPLC system equipped with a ProPac WCX-10 analytical column (Thermo Scientific, Sunnyvale, Calif.). Approximately 100 μg of sample was loaded in 6% Buffer B (10 mM sodium phosphate, 500 mM NaCl, pH 5.5) and 94% Buffer A (10 mM sodium phosphate, pH 7.5). The column was run at a flow rate of 1.0 mL/min. The protein was eluted from the column by increasing the buffer B composition from 6% to 16% over 20 minutes. The protein peaks were measured using UV absorbance at 280 nm as the peaks eluted from the column. The column was regenerated using 100% buffer B followed be a re-equilibration period using initial condition before the injection of the next sample. Peaks eluting before the main peak were termed ‘acidic peaks’ and peaks eluting after the main peak were called ‘basic peaks’ (FIG. 2).
as §2

Data set [4] has the same test system. Briefly: Cell culture performance (cell growth, viability, titer), Cell Line 1 shake flask fed-batch culture. Particulars: for relative harvest titer vs unsupplemented control / cell growth profile vs unsupplemented control: shake flask; for cell growth profile vs unsupplemented control: 3 concentrations in CDFM up to 0.5 g/L (genistein) or 1 g/L (rutin, naringin). The procedure:
as §3
Viable cell density (VCD) and cell viability values were measured through trypan blue exclusion via Cedex automated cell counters (Roche Applied Science, Indianapolis, Ind.), glucose and lactate values were measured with a ABL-805 (Radiometer Medical, Denmark) blood gas analyzer. Offline pH, dissolved oxygen (DO), and pCO2 measurements were performed as needed with an ABL-805 (Radiometer Medical, Denmark) blood gas analyzer. Osmolality was measured as needed on a Multi-Osmette 2430 osmometer (Precision Systems, Natick, Mass.).
Antibody titers were measured from crude cell culture harvests on a Poros A™ (Life Technologies, Carlsbad, Calif.) affinity column using an HPLC system operating with a low pH, step elution gradient with detection at 280 nm. Absolute concentrations were assigned with respect to reference standard calibration curves.
as §5, §6, §2

The test system is the same in data set [5]. Kind of data set: Acidic species variants (WCX-10) of Antibody 1, Cell Line 1 3 L bioreactor fed-batch culture. Particulars: 0.1 g/L in CDFM, Day 15 harvest. How it is done:
as §3, §4
In the next experiment, lab-scale bioreactors were used to (1) confirm the shaker experiment results and (2) to determine whether higher concentration range of EGCG is suitable for supplementing into cell culture. EGCG was added to the feed of the batch culture at the concentrations of 20 mg/L (mid), 50 mg/L (high) and 125 mg/L (high+) and 250 mg/L (high++) in this reactor experiment.
Cell Line 1 was evaluated in larger-scale feed batch cultures with the feed media supplemented with various bioflavonoids. […] By contrast, cell growth performance was slightly different for the 0.1 g/L EGCG supplemented condition. […] However, the cell viability remained high at 0.1 g/L EGCG. All cultures were successfully harvested on Day 15 post-inoculation. The harvest titers measured from the evaluated cultures were similar.
Cell Line 1 was also evaluated in laboratory-scale fedbatch cultures with the feed media supplemented with various bioflavonoids. […] Cell growth performance was slightly different however with the 0.1 g/L EGCG supplemented condition. […] All cultures were able to be successfully harvested on Day 15 post-inoculation.

Regarding `C[C@@H]1O[C@@H](OC[C@H]2O[C@@H](Oc3c(-c4ccc(O)c(O)c4)oc4cc(O)cc(O)c4c3=O)[C@H](O)[C@@H](O)[C@@H]2O)[C@H](O)[C@H](O)[C@H]1O` [rutin], the “concentration above which peak viable cell density dropped lower than unsupplemented control” value is more than 100 µg/mL in data set [1] and “higher than 0.05 g/L” in data set [4]. Also, the “increase in harvest titer” value in data set [1] (CDFM supplemented to 1 g/L, Cell Line 4) is reported as 9%. For the same molecule, the “ratio of acidic region to unsupplemented control” value in data set [2] (0.1 g/L in CDFM) is listed as 0.75; in data set [2] (1 g/L in CDFM), 0.69; in data set [3] (0.1 g/L in CDFM), 0.97; in data set [3] (1 g/L in CDFM), 0.65. The “relative harvest titer vs unsupplemented control” value was determined as 0.98 in data set [4] (0.01 g/L in CDFM); 0.93 in data set [4] (0.1 g/L in CDFM); 0.78 in data set [4] (1 g/L in CDFM, statistically significant). For the same molecule, the “drop in harvest titer” value in data set [4] (CDFM supplemented to 1 g/L, Cell Line 1) is recorded as “at most 22%”. The harvest cell viability in data set [4] (Chinese hamster, 1 g/L) worked out at 76%. Also, the “drop in absolute acidic species percentage points” value in data set [5] (3 L bioreactor) amounted to 5%. Moreover, the “relative total AR (ratio to Day 8 value of unsupplemented control)” value in data set [5] (bioreactor) is reported as 1.00.
As for `O=c1c(-c2ccc(O)cc2)coc2cc(O)cc(O)c12` [genistein], the “cell growth profile vs unsupplemented control” value in data set [4] was “lower than the unsupplemented control condition”.
On the same count and under the same terms, the value for `C[C@@H]1O[C@@H](O[C@H]2[C@H](Oc3cc(O)c4c(c3)O[C@H](c3ccc(O)cc3)CC4=O)O[C@H](CO)[C@@H](O)[C@@H]2O)[C@H](O)[C@H](O)[C@H]1O` [naringin] was “lower than the unsupplemented control condition”.
